ChEMBL document CHEMBL3507680, “University of Dundee, Gates Library screen for HepG2 cell viability”

Assay: Human HepG2 cell viability assay in 384 well format
Format: toxicity, cell-based
Set-up: dose 125 nL, time 70.5 hour; cytotoxicity at 70.5 h: concentration not given beside the values
Details: HepG2 cells, read-out: Inhibition

CC(C)c1cccc(N2CCCC3(CCC(=O)N(C4CC4)C3)C2)n1 (centres undefined)
cytotoxicity at 70.5 h: -1.84%

CCC1CCCN(Cc2nc3ccccc3c(=O)[nH]2)C1 (centres undefined)
cytotoxicity at 70.5 h: -14%

Cc1ccc(C(=O)N(CCC#N)Cc2ccccn2)cc1C
cytotoxicity at 70.5 h: 8.47%

Cn1cc(S(=O)(=O)NC(=O)C2(c3cccc(Cl)c3)CC2)cn1
cytotoxicity at 70.5 h: -10.1%

CCc1cc(=O)[nH]c(-c2ccc(NC(C)CN3CCOCC3)nc2)n1 (centres undefined)
cytotoxicity at 70.5 h: -0.904%

Cc1nc(C)n(CC2CCCN2Cc2ccccn2)n1 (centres undefined)
cytotoxicity at 70.5 h: -6.2%

CCc1nnc2n1CCN(C(C(=O)NC1CC1)c1ccc(F)cc1)C2 (centres undefined)
cytotoxicity at 70.5 h: -15.2%

N#Cc1cccc(S(=O)(=O)N(CC2CCC2)c2cn[nH]c2)c1
cytotoxicity at 70.5 h: -8.03%

CCCN1CCC(CC(=O)NCc2cc(O)ncn2)CC1
cytotoxicity at 70.5 h: -11.6%

Cn1cc(C2NC3(CCCC3)C(=O)N2CC2CC2)c(=O)n(C)c1=O (centres undefined)
cytotoxicity at 70.5 h: -5.99%

CC(C)c1ncncc1C(=O)N1CCN(Cc2ccccn2)CC1
cytotoxicity at 70.5 h: -7.1%

Cc1cc(C)cc(OCCCn2nc3ccccn3c2=O)c1
cytotoxicity at 70.5 h: -13.4%

CC(C)(C)n1ncc(NCC(O)c2ccc(F)c(F)c2)c(Cl)c1=O (centres undefined)
cytotoxicity at 70.5 h: -0.243%

COCc1nn(CC2CC2)c2c1CN(Cc1cncn1C)CC2
cytotoxicity at 70.5 h: 2.02%

Cc1cc(C)n(CCN2CCN(C(=O)c3cc4ccccc4o3)CC2)n1
cytotoxicity at 70.5 h: -0.14%

CNc1ccc(C2CN(c3cc(C)ncn3)CCO2)nc1 (centres undefined)
cytotoxicity at 70.5 h: 1.5%

Cc1cc2c(=O)n3c(nc2s1)CCN(C(=O)c1cn(C)nc1C)CC3
cytotoxicity at 70.5 h: -1.48%

c1coc(-c2noc(CN3CCCCC3Cn3cncn3)n2)c1 (centres undefined)
cytotoxicity at 70.5 h: 5.99%

Cc1ccc(-c2nc(C(=O)N3CCN(C(=O)N(C)C)CC3)cs2)c(C)c1
cytotoxicity at 70.5 h: -9.21%

CC(=O)NCC(=O)N1CCC(C2CCN(Cc3ccc(Cl)cc3)C2)CC1 (centres undefined)
cytotoxicity at 70.5 h: -2.13%

CCCc1nc(N2CCCCCC2)c2c(n1)c(C)nn2CC
cytotoxicity at 70.5 h: -11.6%

CN(C)CCCNC(=O)c1ccccc1NC(=O)c1cc(Cl)ccc1Cl
cytotoxicity at 70.5 h: -13.9%

CC(C)(O)CNc1ccc(C#N)c(C(F)(F)F)c1
cytotoxicity at 70.5 h: -1.99%

COCC1(CNc2cc(C(C)C)nc(N)n2)CC1
cytotoxicity at 70.5 h: 2.2%

O=C(c1cnc(Nc2ccccc2)nc1)N1CCC(O)(CO)CC1
cytotoxicity at 70.5 h: -6.53%

CSC1(CNC(=O)c2ccn(-c3ccccc3F)n2)CCOCC1
cytotoxicity at 70.5 h: -8.53%

CC(=O)N1CCN(c2ccccc2CNc2ccc3[nH]ncc3c2)CC1
cytotoxicity at 70.5 h: 0.892%

Cc1nn(C)c(C)c1C1SCC(=O)Nc2c1c(O)nn2C(C)C (centres undefined)
cytotoxicity at 70.5 h: -28.8%

Cc1ccc(N(C)Cc2nnnn2C2CC2)c(C)c1
cytotoxicity at 70.5 h: -5.96%

O=C1CC[C@H]2CN(C3CCOCC3)CC[C@H]2N1CCC1=CCCCC1
cytotoxicity at 70.5 h: 2.84%

Cc1nc(C2(NCc3cc(C#N)ccc3F)CCCCC2)no1
cytotoxicity at 70.5 h: -17.2%

CCS(=O)(=O)c1ncc(CN(C)Cc2cccc(OC)c2)n1CCOC
cytotoxicity at 70.5 h: -6.87%

Cc1nc(-c2nc(C(=O)N(C)C)c3ccccn23)cn1C(C)C
cytotoxicity at 70.5 h: -8.88%

O=C(CCN1CCOCC1)NC1CCCN(CC2CCCCC2)C1 (centres undefined)
cytotoxicity at 70.5 h: -3.9%

CC(C)c1cc(CN2CCC(CC(=O)O)CC2)no1
cytotoxicity at 70.5 h: -2.18%

COc1c(C2CCCN2Cc2nccn2C)c(C)nn1C (centres undefined)
cytotoxicity at 70.5 h: 2.44%

CCS(=O)(=O)c1ccc2c(c1)N1CCS(=O)(=O)N=C1O2
cytotoxicity at 70.5 h: -15.4%

Cn1ncc2c1CCCC2NCc1cnc(-c2ccccc2)nc1 (centres undefined)
cytotoxicity at 70.5 h: -0.439%

O=C(NCc1ccc(Cl)cc1)N1CCN(CC(O)C2CC2)CC1 (centres undefined)
cytotoxicity at 70.5 h: -8.1%

Cn1cc(C(=O)NCc2ccc(OC3CCCCC3)nc2)ccc1=O
cytotoxicity at 70.5 h: -7.34%

COCCN1CCC2(CCN(c3ncccn3)CC2)C1=O
cytotoxicity at 70.5 h: 16.9%

O=C(Nc1ccccc1F)c1nn(C2CCS(=O)(=O)C2)c2c1CCCC2 (centres undefined)
cytotoxicity at 70.5 h: -7.2%

CC(C)n1cnnc1CN(C)C(=O)c1ccccc1N1CCOCC1
cytotoxicity at 70.5 h: 9.11%

Clc1cnc(NCc2ccccc2N2CCOCC2)nc1
cytotoxicity at 70.5 h: -14.4%

CN(C)C(=O)CN1C(=O)CO[C@@H]2CN(c3ccccn3)C[C@H]21
cytotoxicity at 70.5 h: -7.96%

COc1cccc(-c2cc(NCCN(C)C)nc3[nH]ccc23)n1
cytotoxicity at 70.5 h: -6.53%

Cc1nc(C)c(CNC(=O)NC2CC(C)(C)OC2(C)C)s1 (centres undefined)
cytotoxicity at 70.5 h: -0.473%

O=C(CCc1cnn(-c2ccccc2)c1)N1CCCC(n2cccn2)C1 (centres undefined)
cytotoxicity at 70.5 h: 6.67%

Cn1ccnc1C(=O)N1CCC2(CCCN2CC2CC2)CC1
cytotoxicity at 70.5 h: -7.19%

CCN1CCN(c2ccc(C(=O)NCCOC)cc2F)CC1
cytotoxicity at 70.5 h: 25.2%

CN(C)Cc1nc2c(o1)CN(C(=O)c1ccncc1F)C2
cytotoxicity at 70.5 h: -8.38%

O=C(NCCNC1CCN(c2nccs2)CC1)c1cccs1
cytotoxicity at 70.5 h: -9.14%

COCCNc1nnc(S(=O)(=O)CCC(C)(C)C#N)s1
cytotoxicity at 70.5 h: -5.9%

Cc1cc(CNCc2c(C)n(CC(C)C)c3ccccc23)[nH]n1
cytotoxicity at 70.5 h: -5.55%

CSCCc1n[nH]c2c1CN(S(=O)(=O)c1c(C)nn(C)c1C)CC2
cytotoxicity at 70.5 h: 17.2%

O=C([C@H]1C[C@H]2OCC[C@H]2N(CC2CC2)C1)N1CCCC1
cytotoxicity at 70.5 h: 5.6%

Cc1nn(C)c(C)c1S(=O)(=O)N(CC(N)=O)CC(C)C
cytotoxicity at 70.5 h: -8.24%

Cc1nnc(C(C)N2CCCN(Cc3ccc(F)cc3)CC2)o1 (centres undefined)
cytotoxicity at 70.5 h: -2.19%

CS(=O)(=O)CCNC(=O)c1ccc(-c2ccco2)[nH]c1=O
cytotoxicity at 70.5 h: 1.54%

O=C(Cc1cccs1)N1CCC2(CC1)COCCN2CC1CC1
cytotoxicity at 70.5 h: -8.87%

CC(O)CNC(=O)NCc1cccnc1OC1CCCC1 (centres undefined)
cytotoxicity at 70.5 h: -6.8%

Cc1nc(CN(C)C2CCN(Cc3nc4ccccc4n3C)C2)no1 (centres undefined)
cytotoxicity at 70.5 h: -2.1%

CCn1c(C)nnc1CN(C)C1CCN(Cc2sc(C)nc2C)C1 (centres undefined)
cytotoxicity at 70.5 h: 3.85%

O=C(c1ccc2c(c1)COC2)N1CCC(Nc2cccnn2)CC1
cytotoxicity at 70.5 h: -1.47%

COCCOc1ccnc(-c2noc([C@@H]3CCCN3CC(C)(C)C)n2)c1
cytotoxicity at 70.5 h: 2.83%

CN(CC(=O)N(C)C1CCCCC1)C1CCc2ccccc21 (centres undefined)
cytotoxicity at 70.5 h: -3.54%

Cc1noc(C)c1CN(C)C(=O)CCn1c(=O)n(C)c2ccccc21
cytotoxicity at 70.5 h: -12.2%

O=C1N(c2cccc(Cl)c2)Cc2nc(=O)n(Cc3cccc(F)c3)n21
cytotoxicity at 70.5 h: 0.196%

CCC(CCN)n1ccc(C(F)(F)F)n1 (centres undefined)
cytotoxicity at 70.5 h: 4.74%

CCN(CC)C(=O)c1ccn(COc2ccc(F)cc2F)n1
cytotoxicity at 70.5 h: -7.67%

CC(OCC(F)(F)F)C(=O)NCCN(C)C (centres undefined)
cytotoxicity at 70.5 h: 20.8%

Cn1nc(Br)nc1Sc1ccccc1NC(=O)C1CC1
cytotoxicity at 70.5 h: 1.89%

CN(C)C(=O)CN1C(=O)C[C@@H]2[C@@H]1CCN2Cc1cccc(C#N)c1
cytotoxicity at 70.5 h: 6.8%

CC(C)CNC(=O)c1cn(-c2ccccn2)c(=O)c2ccccc12
cytotoxicity at 70.5 h: -7.97%

CCN(Cc1nc(COC)no1)Cc1ccccc1OCC(=O)O
cytotoxicity at 70.5 h: 20%

CN1Cc2cc(F)ccc2N(CC(C)(C)O)CCC1=O
cytotoxicity at 70.5 h: 8.74%

CC(C)(C)NC(=O)C1CSCN1S(=O)(=O)c1ccccc1S(C)(=O)=O (centres undefined)
cytotoxicity at 70.5 h: -1.89%

O=C(NCc1cccnc1)c1nc2c(s1)CCCN2C(=O)C1CC1
cytotoxicity at 70.5 h: -3.72%

CC(=O)NCCNC(=O)CN1CCCCC1Cn1cncn1 (centres undefined)
cytotoxicity at 70.5 h: -8.39%

CCOCC(=O)N1CSCC1C(=O)N(C)Cc1ccco1 (centres undefined)
cytotoxicity at 70.5 h: 15.7%

COCC(C)NC(=O)NCCCc1cc(N)n(-c2ccccc2)n1 (centres undefined)
cytotoxicity at 70.5 h: -108%

CC(C)N1CC[C@@H]2OC[C@H](C(=O)Nc3cccnc3)C[C@@H]2C1
cytotoxicity at 70.5 h: 25.1%

CNC(=O)c1cnn2c(C3CCCN3C)ccnc12 (centres undefined)
cytotoxicity at 70.5 h: 12.8%

CC(C)CN1CCC2(CCN(Cc3ccoc3)CC2)C1=O
cytotoxicity at 70.5 h: -12.7%

O=C(c1sccc1C1CC1)N1CCCN(c2cccnn2)CC1
cytotoxicity at 70.5 h: -7.16%

CCOC(=O)COc1nc(CC(C)C)c2c(c1C#N)CCC2
cytotoxicity at 70.5 h: 1.02%

CCC(O)CN1CCN(C(=O)Cc2nc(-c3ccco3)oc2C)CC1 (centres undefined)
cytotoxicity at 70.5 h: -2.09%

COCCCN(C)c1cc(C(F)(F)F)nc(-c2cccnc2)n1
cytotoxicity at 70.5 h: -5.74%

Cc1cc(C(F)(F)F)nn1C(C)C(=O)NN1CCOCC1 (centres undefined)
cytotoxicity at 70.5 h: -7.56%

Nc1cc(CCC2CN(Cc3ccc4cc[nH]c4c3)CCO2)ccn1 (centres undefined)
cytotoxicity at 70.5 h: 20.8%

O=C(O)CN1CCC(F)(F)C2(CCN(c3ccccc3)C2)C1 (centres undefined)
cytotoxicity at 70.5 h: -5.61%

O=C(c1occc1CN1C(=O)Cc2ccccc21)N1CCCCCC1
cytotoxicity at 70.5 h: -3.4%

COC(=O)c1ccc(C(=O)NCc2nn(C)c3c2COCC3)cc1
cytotoxicity at 70.5 h: -4.89%

CC(C)CNC[C@H]1O[C@H](Cc2cc(-c3ccccn3)on2)CC[C@@H]1O
cytotoxicity at 70.5 h: 0.841%

CCS(=O)(=O)NCC1CCN(c2cnccn2)CC1
cytotoxicity at 70.5 h: -6.43%

CCOc1cccnc1C(=O)N1CCCN(c2nc(C)cs2)CC1
cytotoxicity at 70.5 h: -3.42%

COC(=O)CCC(=O)N1CCCC2(CCCN2Cc2cccc(F)c2)C1 (centres undefined)
cytotoxicity at 70.5 h: -6.42%

C[C@@H]1CN(C(=O)C2(N3CCCCC3)Cc3ccccc3C2)C[C@H](C)O1
cytotoxicity at 70.5 h: -9%

CN(Cc1ccc(N2CCCCC2)cc1)Cc1noc(C(C)(C)C)n1
cytotoxicity at 70.5 h: -9.02%

CC(C)c1nc(Cn2cncn2)n(-c2ccccn2)n1
cytotoxicity at 70.5 h: -4.77%

CC(C)c1nc(-c2ccc(=O)[nH]n2)n(-c2ccc3c(c2)OCO3)n1
cytotoxicity at 70.5 h: -10.3%

CSCc1nc(CNC(=O)c2cnn(C(C)C)c2)cs1
cytotoxicity at 70.5 h: -11.2%

Cc1nc(CN2C[C@H]3C[C@H](C(=O)NCC4CC4)N(C)[C@H]3C2)cs1
cytotoxicity at 70.5 h: 9.54%

CCNC(=O)c1ccc2ccc(N(CC)CC)n2c1
cytotoxicity at 70.5 h: -8.54%

CCOc1nnc(CN(CC)CC(=O)NC(C)C)s1
cytotoxicity at 70.5 h: -1.99%

CC(=O)c1cc2ncc(C(=O)NC3CCCCC3)cc2[nH]1
cytotoxicity at 70.5 h: 0.178%

C[C@@H](N)C(=O)N1CCC(c2[nH]ncc2-c2ccccc2)CC1
cytotoxicity at 70.5 h: -8.76%

O=c1[nH]c2nc(N3CCCCCC3)ncc2c(=O)n1-c1cccc(F)c1
cytotoxicity at 70.5 h: -0.0138%

O=C(Cn1cccnc1=O)NC(Cc1ccsc1)c1cccnc1 (centres undefined)
cytotoxicity at 70.5 h: -6.19%

c1ccc(-c2nc3c(c(NCCCn4cncn4)n2)CCNCC3)nc1
cytotoxicity at 70.5 h: -13.5%

O=C(CC1CC1)N1CCC2(CC1)CN(c1cccnc1)C(=O)CO2
cytotoxicity at 70.5 h: -4.69%

Cc1nc[nH]c1CNCc1cccnc1N(C)C1CCCCC1
cytotoxicity at 70.5 h: -6%

N#Cc1cccc(S(=O)(=O)N2CC(CC(=O)O)c3ccccc32)c1 (centres undefined)
cytotoxicity at 70.5 h: -4.94%

Cc1nc(CN2CCCCC2CCc2cccs2)co1 (centres undefined)
cytotoxicity at 70.5 h: -9.07%
